Results on seven compounds are retold here after patent US20160250224A1, “OREXIN-CONTROL OF BONE FORMATION AND LOSS” (THE BOARD OF REGENTS OF THE UNIVERSITY OF TEXAS SYSTEM, priority 2013, published 2016).

Where no end group is shown, it is not given here.

The test system of assay [1] is osteoblast differentiation from WT marrow. The assay is described as follows: Ex vivo bone marrow osteoblast differentiation. The assay is classed as cell-based, mouse. Particulars: 10 nM, vs vehicle control. As to the method: (§1) Ex Vivo Bone Marrow Differentiation. Bone marrow cells were cultured for 4 days in MSC media (Mouse MesenCult® Proliferation Kit, StemCell Technologies), then differentiated into osteoblast with a-MEM containing 10% FBS, 5 mM β-glycerophosphate and 100 μg/ml ascorbic acid for 9 days, or differentiated into adipocytes with adipogenesis medium (MesenCult Basal Medium+Mouse MesenCult Adipogenic Stimulatory Supplement, StemCell Technologies) for 7 days (Wei et al., 2012; Wei et al., 2011a; Wei et al., 2011b). For ghrelin knockdown, siRNA was transfected twice with Fugene HD (Roche) the day before and 3 days after differentiation. Osteoclast differentiation was performed as described (Wan et al., 2007; Wei et al., 2010).

The test system of assay [2] is adipocyte differentiation from WT marrow. The assay is described as follows: Ex vivo bone marrow adipocyte differentiation. The assay is classed as cell-based, mouse. The following applies: 10 nM, vs vehicle control. As to the method:
as §1

The test system of assay [3] is ghrelin. As to the kind of experiment: Ghrelin expression and secretion in marrow osteoblast differentiation cultures. The assay is classed as cell-based, mouse. Particulars: 10 nM; for ghrelin induction during osteoblast differentiation: ghrelin mRNA; for ghrelin secretion: osteoblast culture.
In assay [4] the test system is ghrelin. The assay is described as follows: Ghrelin expression and secretion in marrow adipocyte differentiation cultures. Type of assay: cell-based, mouse. The following applies: for ghrelin expression in adipocyte differentiation cultures: 10 nM, ghrelin mRNA; for ghrelin secretion: adipocyte culture (not shown).
The next assay addresses T1, OX1 (Homo sapiens, UniProt O43613).
T1 sequence (O43613 1-425): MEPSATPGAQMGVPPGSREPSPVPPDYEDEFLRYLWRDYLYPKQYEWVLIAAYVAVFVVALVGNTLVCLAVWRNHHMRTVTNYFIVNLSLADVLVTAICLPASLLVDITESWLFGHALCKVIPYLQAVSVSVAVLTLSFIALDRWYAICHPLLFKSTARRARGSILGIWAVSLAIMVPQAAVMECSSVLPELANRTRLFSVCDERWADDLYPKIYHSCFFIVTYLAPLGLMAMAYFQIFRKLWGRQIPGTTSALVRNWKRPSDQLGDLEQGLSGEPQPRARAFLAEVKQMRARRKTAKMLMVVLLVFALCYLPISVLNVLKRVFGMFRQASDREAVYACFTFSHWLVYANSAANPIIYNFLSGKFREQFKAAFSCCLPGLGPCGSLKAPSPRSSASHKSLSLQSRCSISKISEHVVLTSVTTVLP
The following applies: OX1 vs OX2; cited from earlier work.

In the next assay the test system is 3T3-L1 adipocytes. Particulars: cited from earlier work.
In another assay the target is T2, orexin receptor type 2 (Homo sapiens, UniProt O43614).
T2 sequence (O43614 1-444): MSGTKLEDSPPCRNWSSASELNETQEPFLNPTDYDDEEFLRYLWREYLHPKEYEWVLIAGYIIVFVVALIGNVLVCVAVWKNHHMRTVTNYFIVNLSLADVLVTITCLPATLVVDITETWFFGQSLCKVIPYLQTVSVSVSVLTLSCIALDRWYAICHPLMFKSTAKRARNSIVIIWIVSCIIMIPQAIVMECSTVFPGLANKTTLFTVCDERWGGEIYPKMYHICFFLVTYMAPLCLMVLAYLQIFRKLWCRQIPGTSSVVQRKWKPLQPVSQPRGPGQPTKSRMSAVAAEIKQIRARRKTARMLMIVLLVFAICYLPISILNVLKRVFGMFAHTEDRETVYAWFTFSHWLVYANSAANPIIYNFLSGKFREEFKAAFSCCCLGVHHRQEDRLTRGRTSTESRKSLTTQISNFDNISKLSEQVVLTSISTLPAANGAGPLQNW
The following applies: type 2 vs type 1; cited from earlier work.

Another assay concerns WT mice. As to the kind of experiment: Chronic ICV injection of OX2R agonist in WT mice, bone analyses. Type of assay: in vivo, mouse. As to the method: (§2) Bone Analyses. μCT and histomorphometry were performed as described (Wei et al., 2012; Wei et al., 2010). Calcein (20 mg/kg) were injected 2 and 10 days before bone collection. For strength measurement, tibiae were tested by 3-point bending, and a strength parameter (peak load at failure) was assessed with a Test Resources DDL200 axial loading machine outfitted with an Interface SMT1-22 force transducer. Cross-head displacement rate was 0.1 mm/sec. Tests were conducted on the mid-diaphyses with the bones resting on two supports 5 mm apart and the tibial anterior margins facing upward toward the actuator. Serum P1NP and CTX-1 were measured with the Rat/Mouse P1NP EIA kit and the RatLaps™ EIA kit, respectively (Immunodiagnostic Systems) (Wei et al., 2012).
(§3) Chronic ICV Injection. Mice were single-housed one week before surgery. After anesthetized with 2-3% isoflurane, a cannula (3300PM/SPC; PlasticsOne) was implanted into the right lateral ventricle (0.3 mm posterior from the bregma, […] lateral from the midline, and 2.4 mm from the surface of skull) using standard sterile stereotactic techniques as described (Funato et al., 2009). An osmotic minipump (model 1004; Alzet) was attached to the cannula and implanted in the subcutaneous space. The OX2R selective agonist ([Ala11, D-Leu15] Orexin-B; American Peptide) (Asahi et al., 2003) or PBS control was continuously injected in the lateral ventricle for 35 days (0.5 nmol/day) before analyses. Ovariectomy or sham operation was performed 3 days before ICV infusion as described (Wei et al., 2011b).

The test system of assay [5] is OVX-induced bone loss in WT female mice. The assay is described as follows: Chronic ICV injection of OX2R agonist in ovariectomy (OVX) mouse model. The following applies: ICV 0.5 nmol/day for 35 days from 3 days after OVX, 6-month-old female mice. Type of assay: in vivo. As to the method: as §2, §3
For another assay, the system named is OX2R-KO mice. The assay is described as follows: Chronic ICV injection of OX2R agonist in OX2R-KO mice. The assay is classed as in vivo, mouse. The following applies: ICV 0.5 nmol/day for 35 days. As to the method: as §2
Chronic ICV Injection. Mice were single-housed one week before surgery. After anesthetized with 2-3% isoflurane, a cannula (3300PM/SPC; PlasticsOne) was implanted into the right lateral ventricle (0.3 mm posterior from the bregma, […] lateral from the midline, and 2.4 mm from the surface of skull) using standard sterile stereotactic techniques as described (Funato et al., 2009). An osmotic minipump (model 1004; Alzet) was attached to the cannula and implanted in the subcutaneous space. […]

The test system of a further assay is Ob/Ob mice. As to the kind of experiment: Chronic ICV injection of OX2R agonist in Ob/Ob mice. Type of assay: in vivo, mouse. As to the method: as §2, §3
The subject of a further assay is insomniacs. Particulars: phase III, three months; cited from earlier work.
The target in the next assay is T3, orexin-A receptor (Rattus norvegicus, UniProt P56718).
T3 construct: The insula contains orexin-A receptors; from tissue; host or cells: rat brain (insula; whole brain), in vivo
T3 sequence (P56718 1-416): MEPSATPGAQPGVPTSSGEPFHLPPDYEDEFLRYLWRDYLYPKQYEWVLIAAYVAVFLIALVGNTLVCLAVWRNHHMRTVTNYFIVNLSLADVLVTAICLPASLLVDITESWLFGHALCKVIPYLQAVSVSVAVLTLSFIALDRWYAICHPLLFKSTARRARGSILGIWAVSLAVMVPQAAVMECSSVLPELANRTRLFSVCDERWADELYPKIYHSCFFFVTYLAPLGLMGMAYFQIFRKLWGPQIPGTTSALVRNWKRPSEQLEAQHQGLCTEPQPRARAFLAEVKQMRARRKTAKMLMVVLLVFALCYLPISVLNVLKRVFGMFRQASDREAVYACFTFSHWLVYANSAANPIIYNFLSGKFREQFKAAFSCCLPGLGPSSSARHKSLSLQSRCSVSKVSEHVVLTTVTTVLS
Particulars: rats, low doses; cited from earlier work.

Setting [6] is: ICV 0.5 nmol/day for 35 days, WT male mice, serum.
Where [7] appears, read: ICV 0.5 nmol/day for 35 days, WT male mice, tibiae μCT.

Turning to “orexin-A: Human orexin-A peptide, 33 amino acid residues, agonist for OX1R and OX2R (QPLPDCCRQKTCSCRLYELLHGAGNHAAGILTL; ends and bridges not checked; cysteine pairing not given here; UniProt O43612 34-66, looked up)”, the osteoblast differentiation result in [1] was “inhibited”. The adipocyte differentiation entry in assay [2] was “enhanced”. Besides, in the assay with ghrelin [3], the “ghrelin induction during osteoblast differentiation” value was “abolished”. Besides, the “ghrelin expression in adipocyte differentiation cultures” value with ghrelin [4] is “inhibited”. Besides, the “binding to both OX1 and OX2” value with OX1 was “approximately equal affinity”. Further, the glucose uptake entry in the assay on 3T3-L1 adipocytes (3T3-L1 adipocytes) is “stimulates”. Further, in the assay on 3T3-L1 adipocytes (adipocytes), the lipogenesis entry was “increases”, the lipolysis result is reported as “inhibits” and the secretion of adiponectin result is listed as “stimulates”.
With `CNC(=O)[C@@H](c1ccccc1)N1CCc2cc(OC)c(OC)cc2[C@@H]1CCc1ccc(C(F)(F)F)cc1` [ACT-078573, almorexant], the osteoblast differentiation result in [1] is “promoted”. Also, the adipocyte differentiation result in [2] was “attenuated”. In addition, in the assay on ghrelin [3], the “ghrelin induction during osteoblast differentiation” value was “potentiated” and the ghrelin secretion result is on record as “elevated”. In addition, in the assay with ghrelin [4], the “ghrelin expression in adipocyte differentiation cultures” value is “enhanced” and the ghrelin secretion entry is recorded as “elevated”.
Turning to “orexin-B: Human orexin-B, linear 28 amino acid residue peptide, agonist for mainly OX2R”, the “potency at OX1, less than at OX2” value in the assay with OX1 is recorded as 5 times. In the assay with orexin receptor type 2, the “selectivity for orexin receptor type 2” value is listed as 10 fold.
In the case of [Ala11, D-Leu15] Orexin-B [OX2R-AG], the “bone mass (μCT)” value in the assay on WT mice (ICV 0.5 nmol/day for 35 days, WT male mice) is “remarkably enhanced”. In addition, in the assay on WT mice (setting [6]), the CTX-1 result is reported as “unaltered” and the “P1NP, increased” value amounted to 100%. In addition, the “peak load at fracture, higher” value in the assay with WT mice (ICV 0.5 nmol/day for 35 days, WT male mice, three-point bending) is 11%. Moreover, in the assay with WT mice (setting [7]), the “BMD, higher” value is recorded as 8%; the “SMI, lower” value was determined as 25%; the “Tb.N, higher” value was 32%; the “Tb.Sp, lower” value turned out to be 33%. Moreover, in the assay with WT mice (setting [7]), the “Tb.Th, higher” value came to 30%; the “cortical bone BV/TV, higher” value amounted to 1%; the “cortical bone porosity, less” value was 30%; the “trabecular BV/TV, higher” value came out at 66%. Also, the serum leptin levels result in the assay with WT mice (ICV injection, WT mice) is “decreased”. Further, in assay [5], the OVX-induced bone loss result is given as “attenuated”, the “OVX-mediated increase in CTX-1” value is “not significantly altered”, the “OVX-mediated reduction in P1NP” value is reported as “significantly abolished” and the “OVX-mediated reduction in bone formation rate” value was “rescued”. In addition, in [5], the “OVX-mediated reduction in osteoblast number” value was “rescued”. The “Serum P1NP” value in the assay on OX2R-KO mice (10-week-old OX2R-KO male mice) was “unaltered”. Further, in the assay on OX2R-KO mice (OX2R-KO male mice), the bone anabolic effect result was “abolished”. In the assay with Ob/Ob mice, the BV/TV entry is given as “no longer able to increase”, the Tb.N entry was “no longer able to increase” and the Tb.Sp entry is listed as “no longer able to increase”. Moreover, the bone enhancing effects entry in the assay on Ob/Ob mice (12 week old male) is listed as “completely abolished”. In addition, in the assay with Ob/Ob mice (serum), the P1NP result is given as “no longer able to increase”.
As to `Cc1ccc(-n2nccn2)c(C(=O)N2CCN(c3nc4cc(Cl)ccc4o3)CC[C@H]2C)c1` [suvorexant], in the assay with insomniacs, the falling asleep entry was “faster” and the sleep duration entry is recorded as “an hour longer”.
For the compound `Cc1nc2ccc(NC(=O)Nc3ccnc4cccnc34)cc2o1` [SB-334,867], the nicotine self-administration result on orexin-A receptor is reported as “decreased”.
For `Cc1cc(NC(=O)Nc2ccc(N(C)C)cc2)c2cc(F)cc(F)c2n1` [SB-408124], the osteoblast differentiation result in assay [1] is reported as “promoted”. The adipocyte differentiation result in [2] is recorded as “attenuated”. Moreover, in the assay with ghrelin [3], the “ghrelin induction during osteoblast differentiation” value was “potentiated” and the ghrelin secretion result is given as “elevated”. In the assay on ghrelin [4], the “ghrelin expression in adipocyte differentiation cultures” value is recorded as “enhanced” and the ghrelin secretion entry was “elevated”.
